The subject of one data set is HAEC. As to the kind of experiment: Viability of HAEC incubated with cell-permeable peptides. The data set is classed as cell-based, human. The settings on record: first generation cell-permeable peptides. An excerpt:
We used peptides that consisted of the amino acid sequence of the TRAF2,3 or the TRAF6 binding sites of CD40 fused a protein transduction domain derived from the Kaposi fibroblast growth factor to make the peptides cell-permeable, (SEQ ID NO: 1 or SEQ ID NO: 2, respectively). […] Thus, the results obtained with the blocking peptides were similar to those obtained with CD40 mutants.

Data set [1] concerns Human aortic endothelial cells (HAEC). As to the kind of experiment: CD154-induced VCAM-1 upregulation in HAEC transduced with wild-type CD40 (FACS). The data set is classed as cell-based. The settings on record: second generation peptides (Tat MTD), 100 nM, p<0.02. On the procedure: FIGS. 2A-D are a series of graphs showing the induction of VCAM-1 (FIG. 2A), ICAM-1 (FIG. 2B), MCP-1 (FIG. 2C), and tissue factor (FIG. 2D) expression by TRAFs. Human aortic endothelial cells (HAEC) transduced with empty EGFP-encoding retroviral vector (MIEG3) or retroviral vector that encoded either wild type CD40 (wt CD40), CD40 with a mutation that prevents recruitment of TRAF2 and 3 (ΔT2, 3), recruitment of TRAF6 (ΔT6), or recruitment of TRAF2, 3, and 6 (ΔT2, 3, and 6) were incubated with or without CD154. VCAM-1, ICAM-1, and tissue factor were assessed by FACS on transduced (EGFP+) cells. cMFI=corrected Mean Fluorescence Intensity. MCP-1 was measured by ELISA (N=3).
FIGS. 3A-B are a series of graphs showing the effects cell-permeable polypeptides that block CD40-TRAF interactions (T2,3BP and T6BP) on upregulation of VCAM-1 and MCP-1 in HAEC. HAEC were transduced with retroviral vectors encoding wild-type CD40 and incubated with or without CD154. HAEC were pre-treated with either control, TRAF2,3 blocking peptide (T2,3BP), or TRAF6 blocking peptide (T6BP) (200 μM) (N=2).
FIG. 5 is a graph showing the effects of second generation TRAF2, 3 blocking peptide on VCAM-1 upregulation in HAEC.
CD40 activates a variety of signaling cascades. […] Next, we determined if preventing the function of the TRAF2,3 binding site affects adhesion molecule upregulation. […]

A further data set relates to human Müller cells. The format is cell-based. From the text:
(§1) Peptide consisted of the TRAF2,3 binding site of CD40 that was made cell permeable by linking them to the TAT47-57 cell penetrating peptide. Peptides were synthesized using D-amino acids following reverse amino acid sequence (ri format). The sequences for the CD40-TRAF2,3 blocking peptide was —NH2-rrrqrrkkrgy ghlteqvhaatn-OH (SEQ ID NO: 49). The TAT47-57 sequence is underlined. The peptide contains a proline (p) to histidine (h) substitution (shown in italics) that enhances affinity to TRAF2. Control (scrambled) peptide consisted of NH2-rrrqrrkkrgy ntqalahtgevh-OH (SEQ ID NO: 50). The blocking peptide was also synthesized with Alexa Fluor 488 conjugated via maleimide coupling to an additional Cys in the N terminus. Peptides were manufactured by Biopeptide Co. (San Diego, CA) and were low in endotoxin and >98% pure by HPLC. Peptides were used at 1 μM in vitro experiments and 1 μg for in vivo studies unless otherwise stated. Peptides were not toxic to human Müller and retinal endothelial cells as assessed by alamarBlue cell viability assay (Invitrogen Corporation).
(§2) Primary human retinal endothelial cells were obtained as described (9) and cultured in complete medium supplemented with endothelial cell growth supplement from bovine pituitary (15 μg/ml; Sigma Chemical, St Louis, MO) and insulin/transferrin/selenium (Sigma Chemical). Cell identity was confirmed by incorporation of acetylated low-density lipoprotein (>90%). Endothelial cells were used between passages 3 to 6. The human Müller cell line MIO M1 (gift from Dr. Gloria Limb; University College London, UK; >95% vimentin^+, CRALBP^+ and GFAP^−) was also used. Endothelial cells were incubated with multimeric human CD154 to induce CD40 stimulation (obtained from Dr. Richard Kornbluth, Multimeric Biotherapeutics Inc., La Jolla, CA) or with a non-functional CD154 mutant (T147N) as control.
(§3) Peptides were tested as described using the mouse endothelial cells mHEVc that expresses a chimera of the extracellular domain of human CD40 and intracytoplasmic domain of mouse CD40 (hmCD40) with either a mutation that prevents recruitment of TRAF2,3 (hmCD40 ΔT2,3) or TRAF6 (hmCD40 ΔT6). These cells were transfected with pGL4.32luc2P/NF-κB-RE/Hygro vector (Promega Corporation, Madison, WI) encoding an NF-κB response element that drives the luciferase reporter gene luc2P (Photinus pyralis). Cells were pre-incubated with peptides for 3 hr. followed by stimulation with human CD154. Luciferase activity was assessed using a Steady-Glo luciferase assay system (Promega Corporation) and a luminometer. The effects of peptides on cell viability were examined using alamarBlue cell viability assay.

For data set [2], the system named is human retinal endothelial cells. The data set is classed as cell-based.
From the text: as §1, §2, §3

For another data set, the system named is retinas subjected to I/R. Nature of the data set: Model of retinal ischemia/reperfusion (I/R), intravitreal peptide. The format is in vivo, B6 mice. On the procedure:
FIGS. 20(A-C) illustrate images and graphs showing ri CD40-TRAF2,3 blocking peptide protects against loss of ganglion cells and leukocyte infiltration in retinas subjected to I/R. One eye from each B6 and CD40^−/− mouse was subjected to I/R. Contralateral non-ischemic eye was used as control. Eyes subjected to I/R in B6 mice were treated intravitreously with or without ri control peptide, ri CD40-TRAF2,3 blocking peptide (both 1 μg) 30 min prior to increase in IOP. Eyes were collected 2 d after I/R. A marked decrease in the number of ganglion cells is observed in ischemic eyes from B6 treated with ri control peptide or vehicle (original magnification ×400). […] Arrowhead plus asterix identifies a PMN magnified in the inset (original magnification ×600). Scale bar, 50 μm. Number of ganglion cells per mm. Number of infiltrating leukocytes in the inner retina and vitreous per section. GCL=Ganglion cell layer; IPL=Inner plexiform layer; INL=Inner nuclear layer. OPL=Outer plexiform layer; ONL=Outer nuclear layer. Data shown represent Mean±SEM (9 mice per group). *P<0.05; **P<0.01; […].
FIG. 21 illustrates graphs showing ri CD40-TRAF2,3 blocking peptide impairs upregulation of NOS2 and COX-2 in retinas subjected to I/R. One eye of each mouse was treated as above and subjected to I/R. Eyes were collected after 2 d. mRNA levels of NOS2 and COX-2 were assessed by quantitative real time PCR. One non-ischemic eye from a B6 mouse was given an arbitrary value of 1 and data are expressed as fold-increase compared to this animal. Data shown represent Mean±SEM (7-9 mice per group). ***P<0.001.
FIGS. 22(A-B) illustrate graphs and images showing ri CD40-TRAF2,3 blocking peptide impairs upregulation of ICAM-1 and KC/CXCL1 in retinal endothelial cells from retinas subjected to I/R. One eye of each mouse was subjected to I/R. Eyes were collected after 2 d. mRNA levels of ICAM-1 and KC/CXCL1 were assessed by quantitative real time PCR. One non-ischemic eye from a B6 mouse was given an arbitrary value of 1 and data are expressed as fold-increase compared to this animal. Data shown represent Mean±SEM (7-9 mice per group). ***P<0.001. Retinal sections were incubated with Tomato Lectin (labels endothelial cells) plus either anti-ICAM-1 or anti-KC/CXCL1 Ab. Original magnification ×600. GCL=Ganglion cell layer; IPL=Inner plexiform layer; INL=Inner nuclear layer. Scale bar, 10 μm. 6 mice/group.
FIG. 23 illustrates images showing ri CD40-TRAF2,3 blocking peptide impairs NOS2 and KC/CXCL1 upregulation in Müller cells from retinas subjected to I/R. Eyes from B6 mice were treated with control peptide or CD40-TRAF2,3 blocking peptide, subjected to I/R and collected after 2 d. Retinal sections were incubated with anti-Vimentin Ab (labels Müller cells) plus either anti-NOS2 or anti-KC/CXCL1 Ab. Protein expression at the level of Müller cells stalks. […]. Original magnification ×600. Scale bar, 10 μm. 6 mice/group.
FIGS. 24(A-D) illustrate images and graphs showing ri CD40-TRAF2,3 blocking peptide protects against loss of ganglion neurons and inflammation when administered after retinal I/R. One eye from each B6 mouse was subjected to I/R. Non-ischemic eyes were used as controls. Eyes that were subjected to I/R received either ri control peptide or ri CD40-TRAF2,3 blocking peptide 90 min after increase in IOP. Eyes were collected 2 d after I/R. Administration of the blocking peptide protects against ganglion cell loss and infiltration by leukocytes (arrowhead). Original magnification ×400. Scale bar, 50 μm. Number of ganglion cells per mm. Number of leukocytes in the inner retina and vitreous per section. mRNA levels of ICAM-1, KC/CXCL1, NOS2 and COX-2 were assessed by quantitative real time PCR as above. Data shown represent Mean±SEM (7-9 mice per group). **P<0.01; ***P<0.001. GCL=Ganglion cell layer; IPL=Inner plexiform layer; INL=Inner nuclear layer. […]

The mark [3] stands for this setting: 1 μg intravitreal prior to I/R, 2 d, real time PCR.
[4] abbreviates: prior to I/R, 2 d, immunohistochemistry.

Where no end group is shown, it is not given here.

Take “AAVALLPAVLLALLAPAPHPKQEPQEIDFPDD [SEQ ID NO: 2, AAVALLPAVLLALLAP APHPKQEPQEIDFPDD]”: the “viability of HAEC” value in the data set on HAEC is “did not affect viability”.

With “NTAAHVQETLHG YGRKKRRQRRR [SEQ ID NO: 13]”, the “inhibition of upregulation of VCAM-1 triggered by CD154” value in data set [1] amounted to 60%.

On to `CC(C)C[C@@H](NC(=O)[C@@H](C)NC(=O)[C@@H](CCC(N)=O)NC(=O)[C@H](NC(=O)[C@@H](CC(N)=O)NC(=O)[C@@H](Cc1ccc(O)cc1)NC(=O)CNC(=O)[C@@H](CCCNC(=N)N)NC(=O)[C@@H](CCCCN)NC(=O)[C@@H](CCCCN)NC(=O)[C@@H](CCCNC(=N)N)NC(=O)[C@@H](CCCNC(=N)N)NC(=O)[C@@H](CCC(N)=O)NC(=O)[C@@H](CCCNC(=N)N)NC(=O)[C@@H](CCCNC(=N)N)NC(=O)[C@H](N)CCCNC(=N)N)[C@H](C)O)C(=O)N[C@H](C)C(=O)N[C@H](Cc1c[nH]cn1)C(=O)N[C@@H](C(=O)NCC(=O)N[C@H](CCC(=O)O)C(=O)N[C@@H](C(=O)N[C@H](Cc1c[nH]cn1)C(=O)O)C(C)C)[C@H](C)O` [ri control peptide, NH2-rrrqrrkkrgy ntqalahtgevh-OH, reference compound], for which the “toxicity (alamarBlue cell viability assay)” value with human Müller cells is reported as “not toxic”. Besides, the “toxicity (alamarBlue cell viability assay)” value in data set [2] is given as “not toxic”. Besides, in the data set on retinas subjected to I/R (setting [3]), the “COX-2 mRNA levels in retina” value was “upregulated”, the “ICAM-1 mRNA levels in retina” value is reported as “marked upregulation”, the “KC/CXCL1 mRNA levels in retina” value was “marked upregulation” and the “NOS2 mRNA levels in retina” value is recorded as “upregulated”. Also, the “PMN infiltration in the inner retina and vitreous” value in the data set with retinas subjected to I/R (1 μg intravitreal prior to I/R, 2 d after I/R) is on record as “developed PMN infiltration”. Also, the “loss of ganglion cells” value in the data set with retinas subjected to I/R (1 μg intravitreal prior to I/R, eyes collected 2 d after I/R) is on record as “not altered”. Further, in the data set with retinas subjected to I/R (setting [4]), the “expression of ICAM-1 in retinal endothelial cells” value is listed as “increased”, the “expression of KC/CXCL1 in Müller cells” value is listed as “increased KC/CXCL1 expression”, the “expression of KC/CXCL1 in retinal endothelial cells” value is recorded as “increased” and the “expression of NOS2 in Müller cells” value was “NOS2 upregulation”.

“KQEPQEIDFPDD YGRKKRRQRRR [SEQ ID NO: 18]”: the “inhibition of upregulation of VCAM-1 triggered by CD154” value in data set [1] is on record as 60%.

For “AAVALLPAVLLALLAPSNTAAPVQETLHG [SEQ ID NO: 1, AAVALLPAVLLALLAP SNTAAPVQETLHG]”, in the data set with HAEC, the “viability of HAEC” value was “did not affect viability”.

Values taken from patent US12319726B2, “Method for treating CD40-mediated diseases” (CASE WESTERN RESERVE UNIVERSITY, priority 2008, dated 2025).
